Drawing on ChEMBL document CHEMBL1149723, “Structures of four new triterpenoid oligoglycosides: DS-penaustrosides A, B, C, and D from the sea cucumber Pentacta australis” (J Nat Prod, 1992), this text covers IC50 for 2 molecules.

The subject of one assay is KB. Briefly: Cytotoxicity against human KB cells. The assay is classed as functional, cell-based.
The test system of the next assay is L1210. Nature of the assay: Cytotoxicity against mouse L1210 cells. Format: functional, cell-based.

Each structure is given as a SMILES string. Values after ≈ are worked out from the molar mass of the structure shown.

As for `CO[C@@H]1[C@@H](O)[C@H](O[C@@H]2[C@@H](O)[C@H](O[C@H]3[C@H](O)[C@@H](O[C@@H]4OC[C@@H](O)[C@H](O)[C@H]4O)[C@H](O[C@H]4[C@H](O[C@H]5CC[C@]6(C)C7=CC[C@]8(C)[C@@H]([C@@](C)(O)CCCC(C)C)CC[C@@]8(C)[C@@H]7CC[C@H]6C5(C)C)OC[C@@H](O)[C@@H]4O)O[C@@H]3C)O[C@H](CO)[C@H]2O)O[C@H](CO)[C@H]1O` [DS-PENAUSTROSIDE A], the IC50 in the assay with KB came out at 0.62 µg/mL (≈ 0.52 µM); in the assay with L1210, 0.12 µg/mL (≈ 0.101 µM).

Consider `C=C(C)CCC[C@](C)(O)[C@H]1CC[C@@]2(C)[C@@H]3CC[C@H]4C(C)(C)[C@@H](O[C@@H]5OC[C@@H](O)[C@H](O)[C@H]5O[C@@H]5O[C@H](C)[C@@H](O[C@@H]6O[C@H](CO)[C@@H](O)[C@H](O[C@@H]7O[C@H](CO)[C@@H](O)[C@H](OC)[C@H]7O)[C@H]6O)[C@H](O)[C@H]5O[C@@H]5OC[C@@H](O)[C@H](O)[C@H]5O)CC[C@]4(C)C3=CC[C@]12C` [DS-PENAUSTROSIDE B], for which the results for the IC50 in the assay on KB and with L1210 were 4.6 µg/mL (≈ 3.86 µM) and 2.1 µg/mL (≈ 1.76 µM), respectively.

A word on the IC50: it is the concentration at which inhibition is half-maximal. A high value points to lower potency.
